According to the SangsterLogP compilation:

Assay: method code SF-HPLC, from DOI: 10.1021/jf960844v

logP | Structure (SMILES)
3.13 | C=CCO/N=C(\C)c1cccc(Oc2nc(OC)cc(OC)n2)c1C(=O)OC
4.23 | COC(=O)c1c(Oc2nc(OC)cc(OC)n2)cccc1C(C)=NOCC=C(Cl)Cl
2.96 | CCO/N=C(\C)c1cccc(Oc2nc(OC)cc(OC)n2)c1C(=O)OC
3.39 | COC(=O)c1c(Oc2nc(OC)cc(OC)n2)cccc1C(C)=NOCC(F)(F)F
3.59 | CCCO/N=C(\C)c1cccc(Oc2nc(OC)cc(OC)n2)c1C(=O)OC
2.31 | COC(=O)c1c(Oc2nc(OC)cc(OC)n2)cccc1C(C)=NOCCF
4.11 | CCCCON=C(C)c1cccc(Oc2nc(OC)cc(OC)n2)c1C(=O)OC
1.93 | COC(=O)c1c(Oc2nc(OC)cc(OC)n2)cccc1C(C)=NO
3.73 | C=C(Br)CON=C(C)c1cccc(Oc2nc(OC)cc(OC)n2)c1C(=O)OC
3.63 | C=C(Cl)CON=C(C)c1cccc(Oc2nc(OC)cc(OC)n2)c1C(=O)OC
3.23 | COC(=O)c1c(Oc2nc(OC)cc(OC)n2)cccc1/C(C)=N/OCCCl
4.01 | COC(=O)c1c(Oc2nc(OC)cc(OC)n2)cccc1C(C)=NOCc1ccccc1
1.68 | COC(=O)c1c(Oc2nc(OC)cc(OC)n2)cccc1C(C)=NOC(C)=O

Structure (SMILES) | logP
CO/N=C(\C)c1cccc(Oc2nc(OC)cc(OC)n2)c1C(=O)OC | 2.57
